According to patent US9206219B2, “17-hydroxy-17-pentafluorethyl-estra-4,9(10)-dien-11-aryl derivatives, methods for the production thereof and the use thereof for treating diseases” (Bayer Intellectual Property GmbH, priority 2009, dated 2015):

Tests used:
[1] = biological target: T1, human progesterone receptor A (Homo sapiens, UniProt P06401); assay: Progesterone receptor-antagonistic action in stably transfected SK-N-MC cells, MMTV-LUC reporter (PR-A); format: cell-based; settings: antagonistic potency vs 0.1 nmol/l promegestone, 24 hours
T1 construct: expressed in transfected cells; host or cells: SK-N-MC human neuroblastoma cells, stably transfected with pRChPR-A-neo and pMMTV-LUC
T1 sequence (P06401 1-769 isoform P06401-2): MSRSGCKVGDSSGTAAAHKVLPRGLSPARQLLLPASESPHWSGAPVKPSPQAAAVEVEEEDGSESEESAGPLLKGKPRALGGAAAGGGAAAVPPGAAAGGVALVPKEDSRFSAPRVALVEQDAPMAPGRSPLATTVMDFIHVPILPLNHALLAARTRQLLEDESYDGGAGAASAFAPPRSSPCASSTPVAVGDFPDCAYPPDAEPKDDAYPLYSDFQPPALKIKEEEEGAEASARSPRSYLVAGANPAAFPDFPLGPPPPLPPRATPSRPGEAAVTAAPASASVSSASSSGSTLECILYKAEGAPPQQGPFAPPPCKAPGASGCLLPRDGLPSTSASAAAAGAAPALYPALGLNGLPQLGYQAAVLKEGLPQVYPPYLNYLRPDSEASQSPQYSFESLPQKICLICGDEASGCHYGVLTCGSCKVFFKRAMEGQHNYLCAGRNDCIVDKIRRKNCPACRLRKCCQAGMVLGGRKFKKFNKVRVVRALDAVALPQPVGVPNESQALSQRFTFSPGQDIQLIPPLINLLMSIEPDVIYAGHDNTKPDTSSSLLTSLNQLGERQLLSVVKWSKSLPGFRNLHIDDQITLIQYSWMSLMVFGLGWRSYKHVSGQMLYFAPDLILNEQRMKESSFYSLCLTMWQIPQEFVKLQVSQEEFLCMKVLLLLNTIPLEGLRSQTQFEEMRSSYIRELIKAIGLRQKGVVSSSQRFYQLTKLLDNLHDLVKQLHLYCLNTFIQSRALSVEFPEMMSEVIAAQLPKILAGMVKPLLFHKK
Description: (§1) Progesterone Receptor-Antagonistic Action in Stable Transfectants of Human Neuroblastoma Cells (SK-N-MC Cells) with the Human Progesterone A or Progesterone B Receptor and an MN-LUC Reporter Construct
(§2) SK-N-MC cells (human neuroblastoma cells) which have been stably transfected with plasmids expressing the human progesterone receptor B (pRChPR-B-neo) or the human progesterone receptor A (pRChPR-A-neo) and a reporter construct (pMMTV-LUC) were incubated for 24 hours either in the absence (negative control) or in the presence of ascending amounts of the particular test compound (0.01 nmol/l, 0.1 nmol/l, 1 nmol/l, 10 nmol/l, 100 nmol/l and […]), in order to determine the agonistic efficacy. As a positive control of the reporter gene induction, the cells were treated with the synthetic gestagen promegestone (0.01 nmol/l, 0.1 nmol/l, 1 nmol/l, 10 nmol/l, 100 nmol/l and […]). To determine the antagonistic activity, the cells were treated with 0.1 nmol/l promegestone and additionally with ascending amounts of the particular test compound (0.01 nmol/l, 0.1 nmol/l, 1 nmol/l, 10 nmol/l, 100 nmol/l and […]). The activity of the reporter gene LUC (LUC=luciferase) was determined in the cell lysates and measured as RLU (relative light units). All measurements are reported as % efficacy and as EC50 and IC50 concentrations.

[2] = biological target: T2, human progesterone receptor B (Homo sapiens, UniProt P06401); assay: Progesterone receptor-antagonistic action in stably transfected SK-N-MC cells, MMTV-LUC reporter (PR-B); format: cell-based; settings: antagonistic potency vs 0.1 nmol/l promegestone, 24 hours
T2 construct: expressed in transfected cells; host or cells: SK-N-MC human neuroblastoma cells, stably transfected with pRChPR-B-neo and pMMTV-LUC
T2 sequence (P06401 1-933): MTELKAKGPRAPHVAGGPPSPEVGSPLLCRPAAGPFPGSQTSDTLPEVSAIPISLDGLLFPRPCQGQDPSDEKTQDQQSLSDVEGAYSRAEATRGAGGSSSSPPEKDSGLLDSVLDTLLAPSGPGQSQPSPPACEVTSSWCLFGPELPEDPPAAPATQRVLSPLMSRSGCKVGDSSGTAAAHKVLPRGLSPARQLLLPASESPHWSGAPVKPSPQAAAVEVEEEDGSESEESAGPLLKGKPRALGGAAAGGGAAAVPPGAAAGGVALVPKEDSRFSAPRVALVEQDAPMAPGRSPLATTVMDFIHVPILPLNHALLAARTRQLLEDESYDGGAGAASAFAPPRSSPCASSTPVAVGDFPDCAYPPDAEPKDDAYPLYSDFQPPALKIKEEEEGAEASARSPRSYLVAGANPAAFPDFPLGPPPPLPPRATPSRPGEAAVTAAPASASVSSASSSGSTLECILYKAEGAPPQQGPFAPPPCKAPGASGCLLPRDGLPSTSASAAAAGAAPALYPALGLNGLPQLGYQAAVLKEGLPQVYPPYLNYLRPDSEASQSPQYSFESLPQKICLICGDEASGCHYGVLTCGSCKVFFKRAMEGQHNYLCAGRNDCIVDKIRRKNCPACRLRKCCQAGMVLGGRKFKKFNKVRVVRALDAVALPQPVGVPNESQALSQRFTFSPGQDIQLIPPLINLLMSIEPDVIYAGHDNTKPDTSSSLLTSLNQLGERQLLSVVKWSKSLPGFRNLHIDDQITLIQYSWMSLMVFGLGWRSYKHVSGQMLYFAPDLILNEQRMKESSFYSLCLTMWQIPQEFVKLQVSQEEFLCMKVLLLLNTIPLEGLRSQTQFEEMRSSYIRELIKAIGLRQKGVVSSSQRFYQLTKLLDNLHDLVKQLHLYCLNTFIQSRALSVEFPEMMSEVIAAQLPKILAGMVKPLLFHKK
Description: as §1, §2

Structure (SMILES) | IC50 [1] | IC50 [2]
CCOC(=O)CCNC(=O)NCc1ccc([C@H]2C[C@@]3(C)[C@@H](CC[C@@]3(O)C(F)(F)C(F)(F)F)[C@@H]3CCC4=CC(=O)CCC4=C32)cc1 [Example 22, 3-{3-[4-((8S,11R,13S,14S,17S)-17-hydroxy-13-methyl-3-oxo-17-pentafluoroethyl-2,3,6,7,8,11,12,13,14,15,16,17-dodecahydro-1H-cyclopenta[a]phenanthren-11-yl)benzyl]ureido}propionic acid ethyl ester] | 0.5 nM | 0.6 nM
C[C@]12C[C@H](c3ccc(CNC(=O)Nc4ccc(Cl)cc4)cc3)C3=C4CCC(=O)C=C4CC[C@H]3[C@@H]1CC[C@@]2(O)C(F)(F)C(F)(F)F [Example 34, 1-(4-chlorophenyl)-3-[4-((8S,11R,13S,14S,17S)-17-hydroxy-13-methyl-3-oxo-17-pentafluoroethyl-2,3,6,7,8,11,12,13,14,15,16,17-dodecahydro-1H-cyclopenta[a]phenanthren-11-yl)benzyl]urea] | 0.7 nM | 0.8 nM
CC(O)c1cccc([C@H]2C[C@@]3(C)C(CC[C@@]3(O)C(F)(F)C(F)(F)F)C3CCC4=CC(=O)CCC4=C32)c1 (mixture of isomers) [Example 11, (8S,11R,13S,14S,17S)-17-hydroxy-11-[3-((RS)-1-hydroxyethyl)phenyl]-13-methyl-17-pentafluoroethyl-1,2,6,7,8,11,12,13,14,15,16,17-dodecahydrocyclopenta[a]phenanthren-3-one] | 2 nM | 3 nM
C[C@]12C[C@H](c3ccc(C(CO)CO)cc3)C3=C4CCC(=O)C=C4CC[C@H]3[C@@H]1CC[C@@]2(O)C(F)(F)C(F)(F)F [Example 16, (8S,11R,13S,14S,17S)-17-hydroxy-11-[4-(2-hydroxy-1-hydroxymethylethyl)phenyl]-13-methyl-17-pentafluoroethyl-1,2,6,7,8,11,12,13,14,15,16,17-dodecahydrocyclopenta[a]phenanthren-3-one] | 0.8 nM | 1 nM
C[C@]12C[C@H](c3cccc(C4CC4)c3)C3=C4CCC(=O)C=C4CC[C@H]3[C@@H]1CC[C@@]2(O)C(F)(F)C(F)(F)F [Example 12, (8S,11R,13S,14S,17S)-11-(3-cyclopropylphenyl)-17-hydroxy-13-methyl-17-pentafluoroethyl-1,2,6,7,8,11,12,13,14,15,16,17-dodecahydrocyclopenta[a]phenanthren-3-one] | 4 nM | 9 nM
Cc1ccc(NC(=O)NCc2ccc([C@H]3C[C@@]4(C)[C@@H](CC[C@@]4(O)C(F)(F)C(F)(F)F)[C@@H]4CCC5=CC(=O)CCC5=C43)cc2)cc1 [Example 25, 1-[4-((8S,11R,13S,14S,17S)-17-hydroxy-13-methyl-3-oxo-17-pentafluoroethyl-2,3,6,7,8,11,12,13,14,15,16,17-dodecahydro-1H-cyclopenta[a]phenanthren-11-yl)benzyl]-3-p-tolylurea] | 0.3 nM | 0.6 nM

More lines, now with the values ahead:

IC50 [1] | IC50 [2] | Structure (SMILES)
0.09 nM | 0.1 nM | C[C@]12C[C@H](c3ccc(COC(=O)Nc4ccc(F)cc4)cc3)C3=C4CCC(=O)C=C4CC[C@H]3[C@@H]1CC[C@@]2(O)C(F)(F)C(F)(F)F [Example 49, (4-fluorophenyl)carbamic acid 4-((8S,11R,13S,14S,17S)-17-hydroxy-13-methyl-3-oxo-17-pentafluoroethyl-2,3,6,7,8,11,12,13,14,15,16,17-dodecahydro-1H-cyclopenta[a]phenanthren-11-yl)benzyl ester]
0.1 nM | 0.1 nM | C=CCNC(=O)OCc1ccc([C@H]2C[C@@]3(C)[C@@H](CC[C@@]3(O)C(F)(F)C(F)(F)F)[C@@H]3CCC4=CC(=O)CCC4=C32)cc1 [Example 43, allylcarbamic acid 4-((8S,11R,13S,14S,17S)-17-hydroxy-13-methyl-3-oxo-17-pentafluoroethyl-2,3,6,7,8,11,12,13,14,15,16,17-dodecahydro-1H-cyclopenta[a]phenanthren-11-yl)benzyl ester]
0.3 nM | 0.1 nM | C[C@]12C[C@H](c3ccc(CNC(=O)c4cccnc4)cc3)C3=C4CCC(=O)C=C4CC[C@H]3[C@@H]1CC[C@@]2(O)C(F)(F)C(F)(F)F [Example 54, N-[4-((8S,11R,13S,14S,17S)-17-hydroxy-13-methyl-3-oxo-17-pentafluoroethyl-2,3,6,7,8,11,12,13,14,15,16,17-dodecahydro-1H-cyclopenta[a]phenanthren-11-yl)benzyl]nicotinamide]
0.1 nM | 0.4 nM | C[C@]12C[C@H](c3ccc(COC(=O)Nc4ccc(Cl)cc4)cc3)C3=C4CCC(=O)C=C4CC[C@H]3[C@@H]1CC[C@@]2(O)C(F)(F)C(F)(F)F [Example 50, (4-chlorophenyl)carbamic acid 4-((8S,11R,13S,14S,17S)-17-hydroxy-13-methyl-3-oxo-17-pentafluoroethyl-2,3,6,7,8,11,12,13,14,15,16,17-dodecahydro-1H-cyclopenta[a]phenanthren-11-yl)benzyl ester]
0.1 nM | 0.1 nM | CC(C)(C)NC(=O)OCc1ccc([C@H]2C[C@@]3(C)[C@@H](CC[C@@]3(O)C(F)(F)C(F)(F)F)[C@@H]3CCC4=CC(=O)CCC4=C32)cc1 [Example 44, tert-butylcarbamic acid 4-((8S,11R,13S,14S,17S)-17-hydroxy-13-methyl-3-oxo-17-pentafluoroethyl-2,3,6,7,8,11,12,13,14,15,16,17-dodecahydro-1H-cyclopenta[a]phenanthren-11-yl)benzyl ester]
8 nM | 10 nM | C[C@]12C[C@H](c3ccc(COC(=O)NCCC(=O)O)cc3)C3=C4CCC(=O)C=C4CC[C@H]3[C@@H]1CC[C@@]2(O)C(F)(F)C(F)(F)F [Example 55, 3-[4-((8S,11R,13S,14S,17S)-17-hydroxy-13-methyl-3-oxo-17-pentafluoroethyl-2,3,6,7,8,11,12,13,14,15,16,17-dodecahydro-1H-cyclopenta[a]phenanthren-11-yl)benzyloxycarbonylamino]propionic acid]
0.07 nM | 0.2 nM | Cc1ccc(NC(=O)OCc2ccc([C@H]3C[C@@]4(C)[C@@H](CC[C@@]4(O)C(F)(F)C(F)(F)F)[C@@H]4CCC5=CC(=O)CCC5=C43)cc2)cc1 [Example 48, (4-methylphenyl)carbamic acid 4-((8S,11R,13S,14S,17S)-17-hydroxy-13-methyl-3-oxo-17-pentafluoroethyl-2,3,6,7,8,11,12,13,14,15,16,17-dodecahydro-1H-cyclopenta[a]phenanthren-11-yl)benzyl ester]
